From PMC6274563, “Synthesis and In Vitro Anti Leishmania amazonensis Biological Screening of Morita-Baylis-Hillman Adducts Prepared from Eugenol, Thymol and Carvacrol” (Molecules, 2016)
Read-outs that look alike come from different tables or passages of the source.

Legend:
[1] = test system: promastigotes of Leishmania amazonensis (IFLA/BR/67/PH8); assay: Antileishmanial activity against promastigotes (MTT viability); format: cell-based
Method: The promastigote viabilities were determined by the ability of living cells to reduce the yellow MTT (3-(4,5-dimethylthiazol-2-yl)-2,5-diphenyltetrazolium bromide, a tetrazole) to purple formazan. Promastigote forms of Leishmania amazonensis (IFLA/BR/67/PH8) in the log phase of growth were incubated at 25 °C in 96-well cellular culture plates (TPP, Trasadingen, Switzerland) with 1 × 10^5 cells/well in 100 μL Schneider’s Drosophila medium supplemented with 20% of FBS in the presence or absence of different concentrations of compounds 4–15. The growth of promastigotes forms was evaluated simultaneously in the presence of Glucantime®, as reference drug. After 72 h of incubation, […] of a 5 mg·mL^−1 MTT solution was added. After 4 h of incubation at 25 °C, the formed product formazan was dissolved in […] of sodium dodecyl sulfate (SDS) at 10% for 24 h, and the absorbance was measured by spectrophotometry at a 545 nm wavelength. The percentage viability was calculated from the ratio of OD readings in the wells with compounds versus the wells without compounds × 100. The concentration that inhibited 50% of growth (IC50) was determined by regression analysis using the SPSS 8.0 software for Windows (IBM, New York, NY, USA). All experiments were performed at least three times, and each experiment was performed in triplicate. […]

human red blood cells = assay: Haemolytic assay; format: cell-based; conditions: for SIrb (selectivity index on red blood cell) = HC50/IC50: HC50 on red blood cells / IC50 on L. amazonensis promastigotes
[2] = Leishmania amazonensis, promastigotes of L. amazonensis, 72 h incubation, MTT, average of three independent experiments ± standard error of the mean, read-out: IC50
[3] = haemolysis of human red blood cells

| Molecule | IC50 [1, 2] | SIrb (selectivity index on red blood cell) = HC50/IC50 (human red blood cells) | HC50 (human red blood cells; [3]) | other results |
| --- | --- | --- | --- | --- |
| C[C@@H]1[C@H](O)[C@@H](C)/C=C/C=C/C=C/C=C/C=C/C=C/C=C/[C@H](O[C@@H]2O[C@H](C)[C@@H](O)[C@H](N)[C@@H]2O)C[C@@H]2O[C@](O)(C[C@@H](O)C[C@@H](O)[C@H](O)CC[C@@H](O)C[C@@H](O)CC(=O)O[C@H]1C)C[C@H](O)[C@H]2C(=O)O [AmphotericinB, amphotericin B] | 0.52 ± 0.03 µM | 22.34 | 11.61 µM | – |
| C=CCc1ccc(O)c(OC)c1 [Compound 4, eugenol] | – | >5.18 | >400 µM | IC50 ([1]; Leishmania amazonensis, 72 h): 77.2 ± 1.77 µM |
| Cc1ccc(C(C)C)c(O)c1 [Compound 5, thymol] | 115 ± 5.77 µM | – | – | – |
| Cc1ccc(C(C)C)cc1O [Compound 6, carvacrol] | – | – | – | IC50 ([1]; Leishmania amazonensis, 72 h): 138 ± 6.91 µM |
| C=CCc1ccc(OC(=O)C(=C)C(O)c2ccc([N+](=O)[O-])cc2)c(OC)c1 (stereo not shown) [Compound 7, 4-Allyl-2-methoxyphenyl 2-(hydroxy(4-nitrophenyl)methyl)acrylate] | 8.75 ± 0.44 µM | >45.71 | >400 µM | – |
| C=CCc1ccc(OC(=O)C(=C)C(O)c2cccc([N+](=O)[O-])c2)c(OC)c1 (stereo not shown) [Compound 8, 4-Allyl-2-methoxyphenyl-2-(hydroxy(3-nitrophenyl)methyl)acrylate] | 10.5 ± 0.52 µM | >38.13 | >400 µM | – |
| C=CCc1ccc(OC(=O)C(=C)C(O)c2ccccc2[N+](=O)[O-])c(OC)c1 (stereo not shown) [Compound 9, 4-Allyl-2-methoxyphenyl 2-(hydroxy(2-nitrophenyl)methyl)acrylate] | 4.71 ± 0.24 µM | >84.92 | >400 µM | – |
| C=C(C(=O)Oc1cc(C)ccc1C(C)C)C(O)c1ccc([N+](=O)[O-])cc1 (stereo not shown) [Compound 10, 2-Isopropyl-5-methylphenyl 2-(hydroxy(4-nitrophenyl)methyl)acrylate] | 11.4 ± 0.57 µM | – | – | – |
| C=C(C(=O)Oc1cc(C)ccc1C(C)C)C(O)c1cccc([N+](=O)[O-])c1 (stereo not shown) [Compound 11, 2-Isopropyl-5-methylphenyl 2-(hydroxy(3-nitrophenyl)methyl)acrylate] | 10.6 ± 0.53 µM | – | – | – |
| C=C(C(=O)Oc1cc(C)ccc1C(C)C)C(O)c1ccccc1[N+](=O)[O-] (stereo not shown) [Compound 12, 2-Isopropyl-5-methylphenyl 2-(hydroxy(2-nitrophenyl)methyl)acrylate] | 5.91 ± 0.3 µM | – | – | – |
| C=C(C(=O)Oc1cc(C(C)C)ccc1C)C(O)c1ccc([N+](=O)[O-])cc1 (stereo not shown) [Compound 13, 5-Isopropyl-2-methylphenyl 2-(hydroxy(4-nitrophenyl)methyl)acrylate] | 18.1 ± 0.9 µM | – | – | – |
| C=C(C(=O)Oc1cc(C(C)C)ccc1C)C(O)c1cccc([N+](=O)[O-])c1 (stereo not shown) [Compound 14, 5-Isopropyl-2-methylphenyl 2-(hydroxy(3-nitrophenyl)methyl)acrylate] | 22.3 ± 1.12 µM | – | – | – |
| C=C(C(=O)Oc1cc(C(C)C)ccc1C)C(O)c1ccccc1[N+](=O)[O-] (stereo not shown) [Compound 15, 5-Isopropyl-2-methylphenyl 2-(hydroxy(2-nitrophenyl)methyl)acrylate] | 13.6 ± 0.68 µM | – | – | – |
| Glucantime^® | – | – | – | IC50 ([1]; promastigotes of L. amazonensis, 72 h incubation, MTT, average of three independent experiments ± standard error of the mean, read-out: IC50): 1630 ± 437 µM; HC50 (human red blood cells): 1175.02 µM |
